Experimental data published in patent US20240374763A1, “DIAGNOSIS AND MONITORING USING EXTRADOMAIN-B FIBRONECTIN TARGETED PROBES” (Case Western Reserve University, priority 2020, published 2024).
No end group written: not given here.

How the values were obtained:
[1] = tested on: DLD1-DR cells; settings: DLD1-DR cells developed with resistance to 5′-FU; cited from earlier work
[2] = tested on: DLD-1 cells; settings: cited from earlier work
[3] = Relaxivity measurements; type: physicochemical; settings: at 3 T, DPBS buffer
Method: The T1 and T2 values of MT218 and Gd(HP-DO3A) solutions were determined using a 3T MRS 3000 scanner (MR Solutions, Guildford, UK). Solutions of MT218 were prepared at concentrations of 0, 0.25, 0.5, 1, and 2 mM in DPBS buffer (Gibco, Gaithersburg, MD). T1 values were measured using an inversion recovery-fast low angle shot (IR-FLASH) sequence (i=10 ms, TE=4 ms, FA=8°, echoes/frames=128, FOV=40 mm×40 mm, slice thickness =2 mm, number of averages=1, time delay=4000 ms, sample period=200, matrix=256×128). T2 values were obtained using a multi-echo multi-slice (MEMS) sequence (TE=15 ms, […], echoes=10, FOV: 40 mm×40 mm, slice thickness=1 mm, number of averages=1, matrix=256×192). The r1 and r2 relaxivities were calculated from the slopes of 1/T1 and 1/T2 vs. Gd concentration plots, respectively.

[4] = tested on: CAL27 tumors; experiment: MRMI of OSCC flank xenografts, CAL27; type: in vivo, mice; settings: gadoteridol 0.10 mmol/kg
Method: (§1) Animal experiments were performed under an animal protocol approved by the Institutional Animal Care and Use Committee (IACUC) at Case Western Reserve University (CWRU, Cleveland, OH, USA). Female 4-week-old athymic nude mice purchased from the Jackson Laboratory (Bar Harbor, ME, USA) were housed in the Animal Core Facility at CWRU. Anesthetized mice were subcutaneously inoculated in the right flank with 4×10^6 GFP/luciferase-expressing OSCC cells (n=5 per cell line) in 100 μL of a 1:1 mixture of Matrigel HC (Corning) and DPBS. Tumor size was monitored with caliper measurements. After 4 weeks of growth, tumors were sufficiently large for MRI experiments.
MRI experiments were performed with a 3T MRS-3000 system (MR Solutions, Surrey, UK). Tumor-bearing mice were imaged before and at 10, 20, and 30 minutes post-injection of the targeted contrast agent, MT218 (Molecular Theranostics, LLC, Cleveland, OH, USA), at a dose of 0.04 mmol/kg using a T1-weighted fast spin-echo axial sequence with respiratory gating (TR=305 ms, TE=11 ms, FOV=40×40 mm, slice thickness=1 mm, number of slices=15, Nav=2, matrix=256×248). […]
(§2) Images were exported in DICOM format and analyzed using FIJI. Contrast-to-noise ratio (CNR) for each time point was calculated as the difference between the mean tumor intensity and the mean muscle intensity, divided by the standard deviation of noise.

[5] = tested on: HSC3 tumors; experiment: MRMI of OSCC flank xenografts, HSC3; type: in vivo, mice; settings: gadoteridol 0.10 mmol/kg
Method: as §1
MRI experiments were performed with a 3T MRS-3000 system (MR Solutions, Surrey, UK). Tumor-bearing mice were imaged before and at 10, 20, […] spin-echo axial sequence with respiratory gating (TR=305 ms, TE=11 ms, FOV=40×40 mm, slice thickness=1 mm, number of slices=15, Nav=2, matrix=256×248). This protocol was repeated on the same mice 2 days later using the untargeted clinical agent gadoteridol at the clinical dose of 0.10 mmol/kg.
as §2

[6] = tested on: SCC4 tumors; experiment: MRMI of OSCC flank xenografts, SCC4; type: in vivo, mice; settings: gadoteridol 0.10 mmol/kg
Method: as §1
MRI experiments were performed with a 3T MRS-3000 system (MR Solutions, Surrey, UK). […] This protocol was repeated on the same mice 2 days later using the untargeted clinical agent gadoteridol at the clinical dose of 0.10 mmol/kg.
as §2

[7] = tested on: Capan-1 flank tumor xenografts; experiment: MRMI of Capan-1 flank tumor xenografts; type: in vivo, mice; settings: 0.1 mmol/kg; MT218 at 15 minutes post-injection, maintained at least 35 minutes; Gd(HP-DO3A) for the duration of the experiment
Method: (§3) For flank xenograft models, 4×10^6 Capan-1 cells suspended in 100 μL of a 6 mg/mL Matrigel (Corning, Corning, NY) solution was injected subcutaneously into the flank of eight-week-old female nu/nu mice. The tumor bearing mice were imaged after tumor volumes exceeded 300 mm^3. For orthotopic intrapancreatic models, the pancreas of four-week-old female nu/nu mice were surgically exposed and 1×10^6 BxPC3-GFP-Luc or PANC-1-GFP-Luc cells suspended in 100 μL of an Matrigel solution (6 mg/mL) was injected into the pancreatic tissue. Prior to imaging, growth of tumor was verified by bioluminescence imaging with intraperitoneal injection of d-luciferin on IVIS Spectrum system (Perkin Elmer, Waltham, MA).
Flank tumor-bearing mice were anesthetized and a tail vein catheter inserted. MR image acquisition was performed on a 7T Biospin (Bruker, Billerica, MA) preclinical small animal scanner with a volume radiofrequency coil. Axial images were obtained using a multi-spin multi-echo (MSME) MRI sequence (500 ms TR, 8.1 ms TE, 900 FA, 4.50 cm×4.50 cm FOV, 1.50 mm slice thickness, 16 slices, 2 averages, 200×200 matrix, 0.0225×0.0225 cm/pixel resolution). Contrast agents were injected at a dose of 0.1 mmol/kg (100 μL) via the tail vein catheter, followed by a saline flush. Images of the tumors were acquired before contrast and at various time points after contrast administration. Gd(HP-DO3A) was used as a control.
Image files were exported and analyzed in Horus software. ROIs were drawn in the tumor, liver, kidney, and muscle. Muscle ROIs were taken from muscle, with other structures (liver, kidney, tumor) identified after comparison with published images and comparison with anatomical landmarks or bioluminescent imaging. Size of ROIs drawn for image analysis are summarized in Supplemental Table S1. The contrast-to-noise ratio of the tumor (CNR) was calculated using the following equation, where σ_noise is the standard deviation of intensities from an ROI drawn outside of the mouse body: […]

[8] = tested on: BxPC3-GFP-Luc intrapancreatic tumors; experiment: MRMI of BxPC3-GFP-Luc intrapancreatic tumors; type: in vivo, mice; settings: 0.1 mmol/kg, 10 min post-injection
Method: as §3
(§4) Mice bearing intrapancreatic tumors were anesthetized and a tail vein catheter was inserted. Image acquisition was performed on a MR Solutions 3T MRS 3000 scanner with a mouse radiofrequency coil. Axial images were obtained using a Fast Spin Echo (FSE) MRI sequence (305 ms TR, 11 ms TE, 90° F.A, 4 cm×4 cm FOV, 1 mm slice thickness, 10 slices, echo train length=4, echo spacing=11 ms, 4 averages, 256×256 matrix, […] cm/pixel resolution) with respiratory gating. Images were acquired before contrast and at different time points after contrast injection at a dose of 0.1 mmol/kg (100 μL). For competitive binding experiments, a 5:1 molar ratio of free ZD2 peptide to MT218 was injected in mice bearing intrapancreatic BxPC3 tumor xenografts (n=3) at a dose of 0.1 mmol MT218/kg (100 μL). Images obtained on the MR Solutions 3T scanner were normalized using the Surscalereader.exe (MR Solutions, Guildford, UK) program supplied.
Image files were exported and analyzed in Horus software. ROIs were drawn in the tumor, liver, kidney, and muscle. Muscle ROIs were taken from muscle, with other structures (liver, kidney, tumor) identified after comparison with published images and comparison with anatomical landmarks or bioluminescent imaging. Size of ROIs drawn for image analysis are summarized in Supplemental Table S1. The contrast-to-noise ratio of the tumor (CNR) was calculated using the following equation, where σ_noise is the standard deviation of intensities from an ROI drawn outside of the mouse body:
Image contrast was reported as fold enhancement of contrast to noise ratio of postcontrast images over precontrast images using Fold Enhancement=CNRpost/CNRpre. Statistical analysis of CNR was performed in Minitab Express (Minitab Inc, State College, PA). One-way ANOVA with Fisher Individual Tests for Differences of Means post-hoc testing was performed to determine statistical significance between greater than two means (p<0.05). Student's T test was used to determine statistical significance between two means (p<0.05).

[9] = tested on: PANC-1-GFP-Luc intrapancreatic tumor xenografts; experiment: MRMI of PANC-1-GFP-Luc intrapancreatic tumor xenografts; type: in vivo, mice; settings: 0.1 mmol/kg, 10 min postinjection
Method: as §3, §4
Image files were exported and analyzed in Horus software. ROIs were drawn in the tumor, liver, kidney, and muscle. […] The contrast-to-noise ratio of the tumor (CNR) was calculated using the following equation, where σ_noise is the standard deviation of intensities from an ROI drawn outside of the mouse body: […]

[10] = target: extradomain-B fibronectin (EDB-FN) (human) (UniProt P02751); experiment: cell-based or functional assay
Sequence of extradomain-B fibronectin (EDB-FN) (human) (P02751 32-2477): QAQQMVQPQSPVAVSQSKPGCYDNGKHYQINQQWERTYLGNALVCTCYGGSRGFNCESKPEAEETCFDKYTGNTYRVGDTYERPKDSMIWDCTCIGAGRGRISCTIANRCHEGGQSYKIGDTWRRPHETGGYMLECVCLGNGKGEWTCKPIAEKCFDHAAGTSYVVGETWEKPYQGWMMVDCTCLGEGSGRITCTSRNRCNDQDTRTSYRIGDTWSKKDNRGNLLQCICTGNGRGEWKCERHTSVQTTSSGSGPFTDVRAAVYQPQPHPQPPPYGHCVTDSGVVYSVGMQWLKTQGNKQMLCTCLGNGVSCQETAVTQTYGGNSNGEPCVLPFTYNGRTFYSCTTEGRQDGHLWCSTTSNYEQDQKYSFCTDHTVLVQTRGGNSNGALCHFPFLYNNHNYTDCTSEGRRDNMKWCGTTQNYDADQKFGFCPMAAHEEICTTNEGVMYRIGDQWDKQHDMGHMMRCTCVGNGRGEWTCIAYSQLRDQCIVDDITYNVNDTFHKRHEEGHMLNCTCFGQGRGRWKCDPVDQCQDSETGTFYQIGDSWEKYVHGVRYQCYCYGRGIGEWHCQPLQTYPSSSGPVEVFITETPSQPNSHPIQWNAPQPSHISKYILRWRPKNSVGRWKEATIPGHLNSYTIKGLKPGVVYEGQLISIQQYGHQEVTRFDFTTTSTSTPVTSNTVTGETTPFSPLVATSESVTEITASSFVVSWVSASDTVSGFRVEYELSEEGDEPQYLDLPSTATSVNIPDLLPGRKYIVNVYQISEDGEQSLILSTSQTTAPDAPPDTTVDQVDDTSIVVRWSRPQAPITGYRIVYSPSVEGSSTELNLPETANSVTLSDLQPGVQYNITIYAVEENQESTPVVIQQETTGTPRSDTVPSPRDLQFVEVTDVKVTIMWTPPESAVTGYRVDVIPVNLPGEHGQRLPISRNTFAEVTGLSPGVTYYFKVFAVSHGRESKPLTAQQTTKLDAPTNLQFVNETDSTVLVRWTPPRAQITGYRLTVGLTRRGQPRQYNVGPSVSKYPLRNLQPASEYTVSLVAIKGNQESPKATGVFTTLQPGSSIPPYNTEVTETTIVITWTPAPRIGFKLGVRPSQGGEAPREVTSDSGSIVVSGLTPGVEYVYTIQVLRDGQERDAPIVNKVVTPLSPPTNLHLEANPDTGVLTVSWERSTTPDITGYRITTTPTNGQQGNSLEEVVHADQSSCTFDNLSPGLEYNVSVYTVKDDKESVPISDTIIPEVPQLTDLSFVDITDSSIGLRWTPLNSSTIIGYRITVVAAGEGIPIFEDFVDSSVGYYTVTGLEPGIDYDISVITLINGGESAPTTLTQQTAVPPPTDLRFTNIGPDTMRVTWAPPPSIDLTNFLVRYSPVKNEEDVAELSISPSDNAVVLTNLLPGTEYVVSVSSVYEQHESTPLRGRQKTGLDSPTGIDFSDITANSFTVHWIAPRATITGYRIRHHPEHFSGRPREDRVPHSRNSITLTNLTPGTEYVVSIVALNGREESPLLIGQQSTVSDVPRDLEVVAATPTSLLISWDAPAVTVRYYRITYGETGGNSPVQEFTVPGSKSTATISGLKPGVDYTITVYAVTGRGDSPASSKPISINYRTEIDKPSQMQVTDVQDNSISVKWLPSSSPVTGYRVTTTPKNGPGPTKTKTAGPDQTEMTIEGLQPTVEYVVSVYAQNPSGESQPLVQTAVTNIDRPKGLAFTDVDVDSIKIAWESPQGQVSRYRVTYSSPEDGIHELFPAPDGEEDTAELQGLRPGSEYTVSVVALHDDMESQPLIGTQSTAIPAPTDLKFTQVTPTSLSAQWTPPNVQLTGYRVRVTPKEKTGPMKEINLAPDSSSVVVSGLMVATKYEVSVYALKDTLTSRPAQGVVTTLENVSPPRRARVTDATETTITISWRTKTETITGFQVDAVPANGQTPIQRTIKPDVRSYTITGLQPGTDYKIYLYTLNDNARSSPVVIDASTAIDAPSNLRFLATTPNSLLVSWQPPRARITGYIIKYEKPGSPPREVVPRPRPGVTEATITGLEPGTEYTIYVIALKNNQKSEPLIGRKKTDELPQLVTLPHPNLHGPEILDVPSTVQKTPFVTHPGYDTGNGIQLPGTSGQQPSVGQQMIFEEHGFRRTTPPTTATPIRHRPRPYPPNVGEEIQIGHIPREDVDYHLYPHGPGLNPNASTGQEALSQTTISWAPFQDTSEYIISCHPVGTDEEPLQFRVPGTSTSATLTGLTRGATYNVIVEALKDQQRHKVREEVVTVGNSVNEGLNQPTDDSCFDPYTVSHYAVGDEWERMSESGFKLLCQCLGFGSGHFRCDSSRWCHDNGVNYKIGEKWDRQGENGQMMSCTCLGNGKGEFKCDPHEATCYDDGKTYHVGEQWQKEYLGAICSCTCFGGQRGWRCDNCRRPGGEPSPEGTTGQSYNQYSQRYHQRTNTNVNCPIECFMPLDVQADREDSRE

[11] = target: T1, EDB fragment of FN (expressed in E. coli, labelled with NT-647) (UniProt P02751 1266-1356, limits assumed, labelled with amine-reactive dye NT-647); experiment: microscale thermophoresis, NT-647-labelled EDB fragment at fixed concentration, MT218 titrated, 25 °C
T1 construct: domain: EDB fragment of FN
Method: (§5) The binding affinity of MT218 was determined with microscale thermophoresis (MST) using a Nanotemper™ Monolith NT.115 instrument (NanoTemper Technologies, Munich, Germany). The EDB fragment of FN was expressed in E. coli, purified, and labelled with amine-reactive dye NT-647. MT218 was dissolved into assay buffer (50 mM PBS w/0.05% Tween-20). This solution was further diluted using assay buffer to give a series of MT218 working solutions. Each MT218 working solution was then mixed with a fixed concentration of fluorescently labeled EDB fragment. The mixtures of MT218 and EDB were then loaded into standard capillaries, and MST measurements were performed at 25° C. using 20-80% light-emitting diode power and 40% infrared-laser power at varying concentrations of MT218.
MT218 is a small molecular conjugate of ZD2 peptide to a macrocyclic clinical MRI contrast agent Gd(HP-DO3A). […] The T₁ and T₂ relaxivities of MT218 were measured to be 6.07±1.13 s⁻¹ mM⁻¹ and 8.20±0.18 s⁻¹ mM⁻¹, respectively, at 3 T. T₁ and T₂ relaxivities of Gd(HP-DO3A) were measured to be 3.20±0.96 s⁻¹ mM⁻¹ and 5.12±0.18 s⁻¹ mM⁻¹, respectively, at 3 T.

[12] = target: T1, EDB fragment of FN (expressed in E. …); experiment: microscale thermophoresis, MT218 titrated against a fixed concentration of NT-647-labelled EDB fragment, 25 °C [panel B]
Method: as §5

O=c1[nH]cc(F)c(=O)[nH]1 [5′-FU, 5′-fluorouracil]
IC50 [1]: 211 µM | IC50 [2]: 2.5 µM

Gd(HP-DO3A) [gadoteridol, reference compound]
T1 relaxivity [3]: 3.20 ± 0.96 s⁻¹ mM⁻¹ | T2 relaxivity [3]: 5.12 ± 0.18 s⁻¹ mM⁻¹ | average maximum enhancement (CNR) [4]: 2.27±0.18 | average maximum enhancement (CNR) [5]: 2.18±0.07 | average maximum enhancement (CNR) [6]: 2.57±0.28 | increase of contrast to noise ratio (CNR) [7]: 1.77 fold | tumor CNR increase [8]: approximately 2.5 fold | intratumoral CNR increase [9]: 2.35 fold

B1: ZD2-N3-Gd(HP-DO3A) (MT218) (peptide)
peptide: TVRTSAD
modifications: also: conjugated to Gd(HP-DO3A) by click reaction of alkynyl-ZD2 with N3-Gd(HP-DO3A), residue of attachment not given here, Gd complex
notes: Small peptide conjugate of the clinical contrast agent gadoteridol; also called EDB-FN-targeted contrast agent; ZD2 targeted MRI contrast agent
tumor CNR increase (MRMI) in the BxPC3-GFP-Luc intrapancreatic model, MT218 co-injected with an excess of free ZD2 peptide [10]: 2.5 fold | tumor CNR increase (MRMI) in the BxPC3-GFP-Luc intrapancreatic model, MT218 without the free peptide [10]: 4.5 fold | Kd [11]: 3.2 µM | EC50 (read off the curve) [12]: ~3 µM
